In paper PMC3735122 (mBio, 2013):

Tests used:
Assay type in all cases: cell-based, influenza virus H7N9
[1] = system: A/Shanghai/1/13 virus (mixed R/K at NA residue 292)
A/Shanghai/2/2013 virus = test: organism not typed
[2] = system: A/Shanghai/1/2013-NA^R292 (WT no. 6) virus; test: organism not typed
[3] = MDCK, read-out: 90% effective concentration [EC90]

Compound | sensitivity in MDCK cells relative to the A/Shanghai/2/2013 virus [1] | EC90 (A/Shanghai/2/2013 virus; [3]) [µM] | EC90 [2, 3] [µM] | concentration at which replication was completely inhibited (A/Shanghai/2/2013 virus) [µM] | concentration at which replication was completely inhibited [2] [µM] | sensitivity in MDCK cells compared to the A/Shanghai/2/2013 virus [2]
NC(=O)c1nc(F)c[nH]c1=O [favipiravir] | comparable dose-response curves | 1.43 | 10.4 | – | – | –
CCC(CC)O[C@@H]1C=C(C(=O)O)C[C@H](N)[C@H]1NC(C)=O [oseltamivir carboxylate] | – | – | – | 31.25 | 250 | reduced sensitivity
CC(=O)N[C@H]1[C@H]([C@H](O)[C@H](O)CO)OC(C(=O)O)=C[C@@H]1N=C(N)N [zanamivir] | – | – | – | 125 | > 125 | reduced sensitivity
